{
  "source": "BindingDB's records for doi:10.1021/jm049581j",
  "about": "(Purdue University, 2005)",
  "biological_target": "T1, Gag-Pol polyprotein [489-587] (Human immunodeficiency virus 1, UniProt P04585)",
  "T1 construct": "489-587",
  "test": "Inhibitory concentration against human immunodeficiency virus-1 protease; (Dimerization inhibitor)",
  "data": [
    {"smiles": "CC[C@@H](C)[C@H](NC(=O)[C@H](CCC(N)=O)NC(=O)C1CCCN1C(=O)CCCCCCCCCCCCCCC(=O)N[C@@H](CO)C(=O)N[C@H](C(=O)N[C@@H](CC(C)C)C(=O)N[C@@H](CC(N)=O)C(=O)N[C@@H](Cc1ccccc1)C(=O)O)[C@H](C)O)C(=O)N[C@H](C(=O)N[C@@H](CC(C)C)C(=O)N[C@@H](Cc1c[nH]c2ccccc12)C(=O)O)[C@H](C)O", "note": "(some centres not stated)", "values": [
      {"measurement": "IC50", "result": 350, "unit": "nM"},
      {"measurement": "Ki", "result": 220, "unit": "nM"}
    ]}
  ]
}
